The subject of series [1] is Bacillus subtilis (Ward’s 85W 1650). The format is cell-based. As for the experimental part:
(§1) The MIC of bawcin against each bacterial strain was determined using the spot-on-lawn assay as described previously with modifications. A Mueller Hinton (MH) double-agar plate was prepared by pouring 5 mL of 0.75% MH agar inoculated with 50 µL of 0.10 OD625 bacterial suspension onto 20 mL of dried 1.5% MH agar. Bawcin diluted with sterile water to 128, 64, 32, 16, 8, 4, 2, and 1 µM was spotted in 10 µL aliquots onto the top agar layer, along with 10 µL of an antibiotic positive control (ampicillin or kanamycin) and sterile water negative control. Plates were incubated at 37 °C for 16–20 h and the MIC was identified as the lowest concentration in which a zone of inhibition was observed, where partial bacterial growth within the zone of inhibition was considered HR. Assays were performed in triplicate.

Series [2] concerns Bacillus cereus (Ward’s 85W 0200). The format is cell-based. As for the experimental part: as §1
Series [3] concerns Enterococcus faecalis (Ward’s 85W 1100). The format is cell-based. As to the method:
as §1

In series [4] the test system is Staphylococcus aureus ATCC 6538. The format is cell-based. As to the method: as §1
Series [5] deals with Lactobacillus casei (Ward’s 85W 1682). Type of series: cell-based. As for the experimental part: as §1
Series [6] concerns Listeria monocytogenes ATCC 19115. The format is cell-based. As to the method: as §1
The test system of series [7] is Micrococcus luteus (Ward’s 85W 0966). Type of series: cell-based. As to the method:
as §1

The test system of series [8] is Lactococcus lactis ssp. lactis (Ward’s 85W 1774). Type of series: cell-based. As to the method: as §1
Series [9] relates to Lactobacillus delbruekii ssp. bulgaricus (VWR 470179-126). Type of series: cell-based. As to the method:
as §1

The target of the next series is T1, alpha-chymotrypsin (Bos taurus, UniProt P00766).
T1 construct: purchased Worthington
Nature of the series: Protease sensitivity testing (residual activity by spot-on-lawn assay). The format is in vitro ADME. As to conditions: 1 mg/mL alpha-chymotrypsin in 50 mM phosphate buffer pH 8, 1 h at 37 °C, bawcin at 1×, 2×, 4× the MIC, spot-on-lawn against M. luteus, triplicate. As to the method:
as §1
(§2) Protease stability testing was evaluated as described previously with modification. Papain (Scholar Chemistry, Rochester, NY, USA), pepsin (Northwest Scientific, Billings, MT, USA), trypsin (Sigma-Aldrich, Burlington, MA, USA), alpha-chymotrypsin (Worthington, Lakewood, NJ, USA), and proteinase K (Fisher Scientific, Ottawa, ON, Canada) were prepared to a final concentration of 1 mg/mL in 50 mM phosphate buffer adjusted to pH 2 (pepsin), 6 (papain), and 8 (proteinase K, trypsin, alpha-chymotrypsin). Bawcin was combined with each protease to final concentrations of 1×, 2×, and 4× the MIC. Bawcin’s residual antimicrobial activity against M. luteus was determined via spot-on-lawn assay as described above. The following samples were spotted for each assay: (1) protease combined with bawcin at each concentration, bawcin alone at each concentration, buffer alone, protease in buffer alone, ampicillin (positive control), and sterile water (negative control), where all solutions were incubated for 1 h at 37 °C prior to spotting except ampicillin and sterile water. Assays were performed in triplicate.

Another series concerns trypsin. The description is as above. The conditions noted are these: 1 mg/mL trypsin in 50 mM phosphate buffer pH 8, 1 h at 37 °C, bawcin at 1×, 2×, 4× the MIC, spot-on-lawn against M. luteus, triplicate. The format is in vitro ADME. As to the method:
as §1, §2

The target in a further series is T2, proteinase K (Parengyodontium album, UniProt P06873).
T2 construct: purchased Fisher Scientific
The description is as above. The conditions noted are these: 1 mg/mL proteinase K in 50 mM phosphate buffer pH 8, 1 h at 37 °C, bawcin at 1×, 2×, 4× the MIC, spot-on-lawn against M. luteus, triplicate. Type of series: in vitro ADME. As to the method:
as §1, §2

The next series addresses T3, papain (Carica papaya, UniProt P00784).
T3 construct: purchased Scholar Chemistry
Described as above. Type of series: in vitro ADME. As to conditions: spot-on-lawn against M. luteus, triplicate. As to the method:
as §1, §2

A further series deals with T4, pepsin (Sus scrofa, UniProt P00791).
T4 construct: purchased Northwest Scientific
The series is described as above. Type of series: in vitro ADME. As to conditions: 1 mg/mL pepsin in 50 mM phosphate buffer pH 2, 1 h at 37 °C, bawcin at 1×, 4× the MIC (8, 16, 32 µM), spot-on-lawn against M. luteus, triplicate. As for the experimental part:
as §1, §2

No end group written: not given here.

T3 sequence (P00784 134-345): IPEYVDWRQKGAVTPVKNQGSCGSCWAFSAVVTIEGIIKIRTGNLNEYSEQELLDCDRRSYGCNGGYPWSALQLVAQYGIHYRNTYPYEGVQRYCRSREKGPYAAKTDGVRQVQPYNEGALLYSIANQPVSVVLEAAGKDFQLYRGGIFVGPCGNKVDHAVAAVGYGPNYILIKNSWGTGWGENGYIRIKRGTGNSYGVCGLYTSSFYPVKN
T2 sequence (P06873 106-384): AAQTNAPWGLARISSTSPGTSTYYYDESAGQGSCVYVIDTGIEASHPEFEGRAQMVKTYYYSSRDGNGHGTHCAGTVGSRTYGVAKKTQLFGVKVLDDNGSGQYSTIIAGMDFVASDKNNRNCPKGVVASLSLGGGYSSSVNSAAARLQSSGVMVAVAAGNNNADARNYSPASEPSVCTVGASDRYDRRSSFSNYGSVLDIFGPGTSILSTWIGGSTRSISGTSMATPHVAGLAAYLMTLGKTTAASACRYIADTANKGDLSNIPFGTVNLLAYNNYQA
T4 sequence (P00791 60-385): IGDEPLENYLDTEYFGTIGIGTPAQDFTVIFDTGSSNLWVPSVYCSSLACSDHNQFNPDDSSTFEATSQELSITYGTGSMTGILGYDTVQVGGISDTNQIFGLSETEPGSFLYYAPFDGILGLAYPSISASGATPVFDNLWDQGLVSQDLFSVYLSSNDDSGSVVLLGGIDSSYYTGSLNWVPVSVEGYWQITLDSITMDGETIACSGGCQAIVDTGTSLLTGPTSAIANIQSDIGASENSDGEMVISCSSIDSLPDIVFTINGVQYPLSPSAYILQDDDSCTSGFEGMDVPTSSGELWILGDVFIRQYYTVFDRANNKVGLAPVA

Broadly, the MIC is the least concentration at which growth counts as inhibited. The low end stands for a more susceptible organism, the high end for a less susceptible organism. Take “MLSFAKLVARLSASKAKWAWNNKGKVVEWIKNGATFEWISNKIDQMMG [bawcin]”: the MIC is on record as 8 µM in [1]; 16 µM in series [2]; 32 µM in series [3]; 16 µM in series [4]; 8 µM in [5]; 8 µM in [6]. In addition, the values for the MIC in [7], in series [8] and in [9] were 4 µM, 4 µM and 8 µM, respectively. Besides, the “Residual antimicrobial activity in the presence of alpha-chymotrypsin” value on alpha-chymotrypsin is on record as “lost antimicrobial activity at all concentrations tested”. Also, in the series on trypsin, the “Residual antimicrobial activity in the presence of trypsin” value is recorded as “lost antimicrobial activity at all concentrations tested”. At proteinase K, the “Residual antimicrobial activity in the presence of proteinase K” value is on record as “lost antimicrobial activity at all concentrations tested”. Also, the “Residual antimicrobial activity when combined with papain” value at papain (1 mg/mL papain in 50 mM phosphate buffer pH 6, 1 h at 37 °C, bawcin at 1×, 2×, 4× the MIC (8, 16, 32 µM)) is listed as “retained its antimicrobial activity”. The “Lowest bawcin concentration remaining active in combination with papain” value on papain (1 mg/mL papain, pH 6, 1 h at 37 °C, 32, 16, 8 µM tested) was found to be 8 µM. Further, the “Residual antimicrobial activity when combined with pepsin” value at pepsin was “only at 4× the MIC (with HR)”.

Values taken from article PMC10707071, “Characterization of the Novel Leaderless Bacteriocin, Bawcin, from Bacillus wiedmannii” (International Journal of Molecular Sciences, 2023).
